Measured values from US20230086703A1, “N-(4-(5-chloropyridin-3-yl)phenyl)-2-(2-(cyclopropanesulfonamido)pyrimidin-4-yl) butanamide derivatives and related compounds as human CTPS1 inhibitors for the treatment of proliferative diseases” (Step Pharma S.A.S., priority 2019, published 2023).
pIC50: −log10 of the molar value.

Each compound was assayed against T1, human CTPS1 (Homo sapiens, UniProt P17812) (assay: Human CTPS1 enzyme inhibition, ADP-Glo Max assay). Conditions: ADP-Glo Max assay; Table 10; read-out: Human CTPS1 Enzyme Inhibition, IC50 grouped by potency range (CTPS1).
T1 construct: FLAG (with GG linker); His8 (with GG linker); purchased Proteros biostructures GmbH
T1 sequence (P17812 1-591): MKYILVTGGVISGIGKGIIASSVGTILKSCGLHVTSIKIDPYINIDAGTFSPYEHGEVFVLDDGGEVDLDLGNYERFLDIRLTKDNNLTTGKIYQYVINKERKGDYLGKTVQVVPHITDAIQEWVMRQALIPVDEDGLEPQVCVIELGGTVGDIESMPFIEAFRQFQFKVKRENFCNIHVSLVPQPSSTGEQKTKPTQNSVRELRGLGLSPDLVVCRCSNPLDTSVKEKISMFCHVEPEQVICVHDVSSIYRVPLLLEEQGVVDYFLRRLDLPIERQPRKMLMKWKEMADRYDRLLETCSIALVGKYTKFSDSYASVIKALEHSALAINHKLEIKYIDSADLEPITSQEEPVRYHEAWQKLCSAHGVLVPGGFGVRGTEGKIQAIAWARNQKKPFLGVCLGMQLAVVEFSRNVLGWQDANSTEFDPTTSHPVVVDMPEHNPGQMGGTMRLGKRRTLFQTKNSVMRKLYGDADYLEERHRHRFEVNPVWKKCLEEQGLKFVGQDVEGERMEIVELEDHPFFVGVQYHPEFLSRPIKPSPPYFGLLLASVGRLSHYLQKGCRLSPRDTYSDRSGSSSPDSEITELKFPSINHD
Format: biochemical
Method: The enzyme inhibitory activities of compounds invented against the target of interest were determined using the ADP-Glo™ Max assay (Promega, UK). Assays for human CTPS1 were performed in 1× assay buffer containing 50 mM Tris, 10 mM MgCl2, 0.01% Tween-20, pH to 8.0 accordingly. Finally, immediately before use, L-cysteine was added to the 1× assay buffer to a final concentration of 2 mM. All reagents are from Sigma-Aldrich unless specified otherwise.
3× human CTPS1 protein was prepared in 1× assay buffer to the final working protein concentration required for the reaction. A 2 uL volume per well of 3× human CTPS1 protein was mixed with 2 uL per well of 3× test compound (compound prepared in 1× assay buffer to an appropriate final 3× compound concentration respective to the concentration response curve designed for the compounds under test) for 10 minutes at 25° C. […] ADP-Glo™ Max reagent was added for 60 minutes (6 μL per well) and subsequently ADP-Glo™ Max development reagent was added for 60 minutes (12 uL per well) prior to signal detection in a microplate reader (EnVision® Multilabel Reader, Perkin Elmer). Following each reagent addition over the course of the assay, assay plates were pulse centrifuged for 30 seconds at 500 rpm.
In all cases, the enzyme converts ATP to ADP and the ADP-Glo™ Max reagent subsequently depletes any remaining endogenous ATP in the reaction system. The ADP-Glo™ Max detection reagent converts the ADP that has been enzymatically produced back into ATP and using ATP as a substrate together with luciferin for the enzyme luciferase, light is generated which produces a detectable luminescence. […] The percentage inhibition produced by each concentration of compound was calculated using the equation shown below: […]

SMILES | pIC50
CC(C)(C(=O)Nc1ccc(-c2cncc(OCC(F)(F)F)n2)cn1)c1csc(NS(=O)(=O)C2CC2)n1 [T109, 2-(2-(cyclopropanesulfonamido)thiazol-4-yl)-2-methyl-N-(5-(6-(2,2,2-trifluoroethoxy)pyrazin-2-yl)pyridin-2-yl)propanamide] | > 7.00
CC(C)(C(=O)Nc1ncc(-c2cncc(C#N)n2)cc1F)c1csc(NS(=O)(=O)C2CC2)n1 [T113, N-(5-(6-cyanopyrazin-2-yl)-3-fluoropyridin-2-yl)-2-(2-(cyclopropanesulfonamido)thiazol-4-yl)-2-methylpropanamide] | 5.00 to 6.00
CC(C)(C(=O)Nc1ccc(-c2cncc(OCC(F)(F)F)c2)cn1)c1csc(NS(=O)(=O)C2CC2)n1 [T114, 2-(2-(cyclopropanesulfonamido)thiazol-4-yl)-2-methyl-N-(5′-(2,2,2-trifluoroethoxy)-[3,3′-bipyridin]-6-yl)propanamide] | 6.00 to 7.00
CC(C)(C(=O)Nc1ccc(-c2cncc(OC(F)F)c2)cn1)c1csc(NS(=O)(=O)C2CC2)n1 [T115, 2-(2-(cyclopropanesulfonamido)thiazol-4-yl)-N-(5′-(difluoromethoxy)-[3,3′-bipyridin]-6-yl)-2-methylpropanamide] | > 7.00
CC(C)(C(=O)Nc1ccc(-c2cncc(OC(F)F)c2)cc1)c1csc(NS(=O)(=O)C2CC2)n1 [T118, 2-(2-(cyclopropanesulfonamido)thiazol-4-yl)-N-(4-(5-(difluoromethoxy)pyridin-3-yl)phenyl)-2-methylpropanamide] | > 7.00
CCC(CC)(C(=O)Nc1ccc(-c2cncc(OC)n2)cc1)c1csc(NS(=O)(=O)C2CC2)n1 [T119, 2-(2-(cyclopropanesulfonamido)thiazol-4-yl)-2-ethyl-N-(4-(6-methoxypyrazin-2-yl)phenyl)butanamide] | > 7.00
CCOc1cncc(-c2ccc(NC(=O)C(C)(C)c3csc(NS(=O)(=O)C4CC4)n3)c(F)c2)c1 [T125, 2-(2-(cyclopropanesulfonamido)thiazol-4-yl)-N-(4-(5-ethoxypyridin-3-yl)-2-fluorophenyl)-2-methylpropanamide] | > 7.00
CC(C)(C(=O)Nc1ccc(-c2cncc(F)c2)cc1F)c1csc(NS(=O)(=O)C2CC2)n1 [T126, 2-(2-(cyclopropanesulfonamido)thiazol-4-yl)-N-(2-fluoro-4-(5-fluoropyridin-3-yl)phenyl)-2-methylpropanamide] | > 7.00
CC(C)(C(=O)Nc1ccc(-c2cncc(OCC(F)(F)F)n2)cc1)c1csc(NS(=O)(=O)C2CC2)n1 [T127, 2-(2-(cyclopropanesulfonamido)thiazol-4-yl)-2-methyl-N-(4-(6-(2,2,2-trifluoroethoxy)pyrazin-2-yl)phenyl)propanamide] | > 7.00
CC(C)(C(=O)Nc1ccc(-c2cncc(Cl)c2)cc1F)c1csc(NS(=O)(=O)C2CC2)n1 [T128, N-(4-(5-chloropyridin-3-yl)-2-fluorophenyl)-2-(2-(cyclopropanesulfonamido)thiazol-4-yl)-2-methylpropanamide] | > 7.00
CCOc1cncc(-c2ccc(NC(=O)C(C)(C)c3csc(NS(=O)(=O)C4CC4)n3)c(F)c2)n1 [T134, 2-(2-(cyclopropanesulfonamido)thiazol-4-yl)-N-(4-(6-ethoxypyrazin-2-yl)-2-fluorophenyl)-2-methylpropanamide] | > 7.00
C#Cc1cncc(-c2ccc(NC(=O)C(C)(C)c3csc(NS(=O)(=O)C4CC4)n3)cc2)n1 [T136, 2-(2-(cyclopropanesulfonamido)thiazol-4-yl)-N-(4-(6-ethynylpyrazin-2-yl)phenyl)-2-methylpropanamide] | > 7.00

Now from value to compound:

pIC50 | SMILES
6.00 to 7.00 | CC(C)(C(=O)Nc1ncc(-c2cnccn2)cc1F)c1csc(NS(=O)(=O)C2CC2)n1 [T110, 2-(2-(cyclopropanesulfonamido)thiazol-4-yl)-N-(3-fluoro-5-(pyrazin-2-yl)pyridin-2-yl)-2-methylpropanamide]
> 7.00 | CCOc1cncc(-c2cnc(NC(=O)C(C)(C)c3csc(NS(=O)(=O)C4CC4)n3)c(F)c2)n1 [T111, 2-(2-(cyclopropanesulfonamido)thiazol-4-yl)-N-(5-(6-ethoxypyrazin-2-yl)-3-fluoropyridin-2-yl)-2-methylpropanamide]
> 7.00 | CC(C)(C(=O)Nc1ncc(-c2cncc(C(F)(F)F)n2)cc1F)c1csc(NS(=O)(=O)C2CC2)n1 [T112, 2-(2-(cyclopropanesulfonamido)thiazol-4-yl)-N-(3-fluoro-5-(6-(trifluoromethyl)pyrazin-2-yl)pyridin-2-yl)-2-methylpropanamide]
6.00 to 7.00 | CC(C)(C(=O)Nc1ccc(-c2cccnc2)nc1)c1csc(NS(=O)(=O)C2CC2)n1 [T116, N-([2,3′-bipyridin]-5-yl)-2-(2-(cyclopropanesulfonamido)thiazol-4-yl)-2-methylpropanamide]
6.00 to 7.00 | CC(C)(C(=O)Nc1ccc(-c2cncnc2)nc1)c1csc(NS(=O)(=O)C2CC2)n1 [T117, 2-(2-(cyclopropanesulfonamido)thiazol-4-yl)-2-methyl-N-(6-(pyrimidin-5-yl)pyridin-3-yl)propanamide]
> 7.00 | CCC(CC)(C(=O)Nc1ccc(-c2cccnc2)cc1F)c1csc(NS(=O)(=O)C2CC2)n1 [T121, 2-(2-(cyclopropanesulfonamido)thiazol-4-yl)-2-ethyl-N-(2-fluoro-4-(pyridin-3-yl)phenyl)butanamide]
> 7.00 | CCC(CC)(C(=O)Nc1ccc(-c2cnccn2)cc1)c1csc(NS(=O)(=O)C2CC2)n1 [T122, 2-(2-(cyclopropanesulfonamido)thiazol-4-yl)-2-ethyl-N-(4-(pyrazin-2-yl)phenyl)butanamide]
> 7.00 | CCCOc1cncc(-c2ccc(NC(=O)C(CC)(CC)c3csc(NS(=O)(=O)C4CC4)n3)cc2)n1 [T123, 2-(2-(cyclopropanesulfonamido)thiazol-4-yl)-2-ethyl-N-(4-(6-propoxypyrazin-2-yl)phenyl)butanamide]
> 7.00 | CC(C)(C(=O)Nc1ccc(-c2cncc(C#N)c2)cc1F)c1csc(NS(=O)(=O)C2CC2)n1 [T129, N-(4-(5-cyanopyridin-3-yl)-2-fluorophenyl)-2-(2-(cyclopropanesulfonamido)thiazol-4-yl)-2-methylpropanamide]
> 7.00 | COc1cncc(-c2ccc(NC(=O)C3(c4csc(NS(=O)(=O)C5CC5)n4)CCCC3)cc2)n1 [T130, 1-(2-(cyclopropanesulfonamido)thiazol-4-yl)-N-(4-(6-methoxypyrazin-2-yl)phenyl)cyclopentane-1-carboxamide]
> 7.00 | CC(C)(C(=O)Nc1ccc(-c2cncc(OCC(F)(F)F)n2)cc1F)c1csc(NS(=O)(=O)C2CC2)n1 [T131, 2-(2-(cyclopropanesulfonamido)thiazol-4-yl)-N-(2-fluoro-4-(6-(2,2,2-trifluoroethoxy)pyrazin-2-yl)phenyl)-2-methylpropanamide]
6.00 to 7.00 | CC(C)(C(=O)Nc1ccc(-c2cncc(OCC(F)(F)F)c2)cc1F)c1csc(NS(=O)(=O)C2CC2)n1 [T132, 2-(2-(cyclopropanesulfonamido)thiazol-4-yl)-N-(2-fluoro-4-(5-(2,2,2-trifluoroethoxy)pyridin-3-yl)phenyl)-2-methylpropanamide]
6.00 to 7.00 | CC(C)(C(=O)Nc1ccc(-c2cncc(OCC(F)(F)F)c2)cc1)c1csc(NS(=O)(=O)C2CC2)n1 [T135, 2-(2-(cyclopropanesulfonamido)thiazol-4-yl)-2-methyl-N-(4-(5-(2,2,2-trifluoroethoxy)pyridin-3-yl)phenyl)propanamide]
